# Measured values: patent US20190169134A1, “NOVEL CLASS OF QUINOLONE HETEROCYCLIC AROMATIC MOLECULES FOR CANCER TREATMENT” (RenoTarget Therapeutics, Inc., priority 2016, published 2019)
# Key:
# Experiment in all cases: KinaseSeeker competition binding assay
# PDPK1 = molecular target: T1, PDPK1 (Homo sapiens, UniProt O15530)
# T1 construct: made in house; host or cells: cell-free, rabbit reticulocyte lysate
# Description: (§1) Compound Reno647 was profiled against the following panel of kinases at 2 μM using the KinaseSeeker™ assay: ABL1, AKT1, AKT2, AKT3, ALK, AURKA, AXL, BRAF, BTK, CDK2, CDK5, CDK7, CDK8, CSF1R, DDR1, EGFR del L747-P753 InsS, EGFR (L861Q), EGFR (G719S), EGFR, EGFR (L858R), EPHA2, EPHB2, FGFR3, FLT1/VEGFR1, FLT2/FGFR1, FLT3, FLT4/VEGFR3, GSK-3a, HER2, IGF1R, INSR, KIT, LIMK1, MET, MLK2/MAP3K10, RPS6KA5/MSK1, MUSK, p38a/MAPK12, PDGFRA, PDGFRB, PDK1, RET, RIPK2, RPS6KA1/RSK1, SRC, TEC, TESK1, TRKB, VEGFR2, and YES 1.
# (§2) KinaseSeeker is a homogeneous competition binding assay where the displacement of an active site dependent probe by an inhibitor is measured by a change in luminescence signal (see FIG. 7). Luminescence readout translates into a highly sensitive and robust assay with low background and minimal interference from test compounds.
# (§3) (Jester, Cox et al. 2010; Jester, Gaj et al. 2012): 10 mM stock of compound Reno647 was diluted in DMSO to a concentration of 50 μM. Prior to initiating a profiling campaign, the compound was evaluated for false positive against split-luciferase. The compound was then screened in duplicate against each of the kinases. For kinase assays, each Cfluc-Kinase was translated along with Fos-Nfluc using a cell-free system (rabbit reticulocyte lysate) at 30° C. for 90 min. A 24 μL aliquot of this lysate containing either 1 μL of DMSO (for no-inhibitor control) or compound solution in DMSO (2 LM final concentration) was incubated for 30 minutes at room temperature followed by 1 hour in the presence of a kinase specific probe. A 80 μL of luciferin assay reagent was added to each solution and luminescence was immediately measured on a luminometer.
# (§4) The % Inhibition and % Activity Remaining were calculated using the following equations:
# (§5) % inhibition=(ALUcontrol−ALUsample)×100
# (§6) % activity=100−% inhibition.
# DDR1 = molecular target: T2, DDR1 (Homo sapiens, UniProt Q08345)
# T2 construct: made in house; host or cells: cell-free system (rabbit reticulocyte lysate)
# Description: as §1, §2, §3, §4, §5, §6
# CDK5 = molecular target: T3, CDK5 (Homo sapiens, UniProt Q00535)
# T3 construct: made in house; host or cells: cell-free system (rabbit reticulocyte lysate)
# Description: as §1, §2, §3, §4, §5, §6
# ALK = molecular target: T4, ALK (Homo sapiens, UniProt Q9UM73)
# T4 construct: made in house; host or cells: cell-free system (rabbit reticulocyte lysate)
# Description: as §1, §2, §3, §4, §5, §6
# INSR = molecular target: T5, INSR (Homo sapiens, UniProt P06213)
# T5 construct: made in house; host or cells: cell-free, rabbit reticulocyte lysate
# Description: as §1, §2, §3, §4, §5, §6
# FLT1 = molecular target: T6, FLT1 (Homo sapiens, UniProt P17948)
# T6 construct: made in house; host or cells: cell-free system (rabbit reticulocyte lysate)
# Description: as §1, §2, §3, §4, §5, §6
# ABL1 = molecular target: T7, ABL1 (Homo sapiens, UniProt P00519)
# T7 construct: made in house; host or cells: cell-free system (rabbit reticulocyte lysate)
# Description: as §1, §2, §3, §4, §5, §6
# GSK3A = molecular target: T8, GSK3A (Homo sapiens, UniProt P49840)
# T8 construct: made in house; host or cells: cell-free, rabbit reticulocyte lysate
# Description: as §1, §2, §3, §4, §5, §6
# CDK7 = molecular target: T9, CDK7 (Homo sapiens, UniProt P50613)
# T9 construct: made in house; host or cells: cell-free system (rabbit reticulocyte lysate)
# Description: as §1, §2, §3, §4, §5, §6
# AKT1 = molecular target: T10, AKT1 (Homo sapiens, UniProt P31749)
# T10 construct: made in house; host or cells: cell-free system (rabbit reticulocyte lysate)
# Description: as §1, §2, §3, §4, §5, §6
# MLK2 = molecular target: T11, MLK2 (Homo sapiens, UniProt Q02779)
# T11 construct: made in house; host or cells: cell-free, rabbit reticulocyte lysate
# Description: as §1, §2, §3, §4, §5, §6
# CSF1R = molecular target: T12, CSF1R (Homo sapiens, UniProt P07333)
# T12 construct: made in house; host or cells: cell-free system (rabbit reticulocyte lysate)
# Description: as §1, §2, §3, §4, §5, §6
# FLT3 = molecular target: T13, FLT3 (Homo sapiens, UniProt P36888)
# T13 construct: made in house; host or cells: cell-free, rabbit reticulocyte lysate
# Description: as §1, §2, §3, §4, §5, §6
# PDGFRB = molecular target: T14, PDGFRB (Homo sapiens, UniProt P09619)
# T14 construct: made in house; host or cells: cell-free, rabbit reticulocyte lysate
# Description: as §1, §2, §3, §4, §5, §6
# CDK8 = molecular target: T15, CDK8 (Homo sapiens, UniProt P49336)
# T15 construct: made in house; host or cells: cell-free system (rabbit reticulocyte lysate)
# Description: as §1, §2, §3, §4, §5, §6
# CDK2 - Cyclin E1 = molecular target: T16, CDK2 - Cyclin E1 (Homo sapiens, UniProt P24941)
# T16 construct: made in house; host or cells: cell-free system (rabbit reticulocyte lysate)
# Description: as §1, §2, §3, §4, §5, §6
# TEC = molecular target: T17, TEC (Homo sapiens, UniProt P42680)
# T17 construct: made in house; host or cells: cell-free, rabbit reticulocyte lysate
# Description: as §1, §2, §3, §4, §5, §6
# BRAF = molecular target: T18, BRAF (Homo sapiens, UniProt P15056)
# T18 construct: made in house; host or cells: cell-free system (rabbit reticulocyte lysate)
# Description: as §1, §2, §3, §4, §5, §6
# TRKB = molecular target: T19, TRKB (Homo sapiens, UniProt Q16620)
# T19 construct: made in house; host or cells: cell-free, rabbit reticulocyte lysate
# Description: as §1, §2, §3, §4, §5, §6
# PDGFRA = molecular target: T20, PDGFRA (Homo sapiens, UniProt P16234)
# T20 construct: made in house; host or cells: cell-free, rabbit reticulocyte lysate
# Description: as §1, §2, §3, §4, §5, §6
# LIMK1 = molecular target: T21, LIMK1 (Homo sapiens, UniProt P53667)
# T21 construct: made in house; host or cells: cell-free, rabbit reticulocyte lysate
# Description: as §1, §2, §3, §4, §5, §6
# p38a = details: 2 μM
# Description: as §1, §2, §3, §4, §5, §6
# MUSK = molecular target: T22, MUSK (Homo sapiens, UniProt O15146)
# T22 construct: made in house; host or cells: cell-free, rabbit reticulocyte lysate
# Description: as §1, §2, §3, §4, §5, §6
# AXL = molecular target: T23, AXL (Homo sapiens, UniProt P30530)
# T23 construct: made in house; host or cells: cell-free system (rabbit reticulocyte lysate)
# Description: as §1, §2, §3, §4, §5, §6
# SRC = molecular target: T24, SRC (Homo sapiens, UniProt P12931)
# T24 construct: made in house; host or cells: cell-free, rabbit reticulocyte lysate
# Description: as §1, §2, §3, §4, §5, §6
# KIT-KD = molecular target: T25, KIT-KD (Homo sapiens, UniProt P10721)
# T25 construct: KIT-KD; made in house; host or cells: cell-free, rabbit reticulocyte lysate
# Description: as §1, §2, §3, §4, §5, §6
# T24 sequence (P12931 whole entry): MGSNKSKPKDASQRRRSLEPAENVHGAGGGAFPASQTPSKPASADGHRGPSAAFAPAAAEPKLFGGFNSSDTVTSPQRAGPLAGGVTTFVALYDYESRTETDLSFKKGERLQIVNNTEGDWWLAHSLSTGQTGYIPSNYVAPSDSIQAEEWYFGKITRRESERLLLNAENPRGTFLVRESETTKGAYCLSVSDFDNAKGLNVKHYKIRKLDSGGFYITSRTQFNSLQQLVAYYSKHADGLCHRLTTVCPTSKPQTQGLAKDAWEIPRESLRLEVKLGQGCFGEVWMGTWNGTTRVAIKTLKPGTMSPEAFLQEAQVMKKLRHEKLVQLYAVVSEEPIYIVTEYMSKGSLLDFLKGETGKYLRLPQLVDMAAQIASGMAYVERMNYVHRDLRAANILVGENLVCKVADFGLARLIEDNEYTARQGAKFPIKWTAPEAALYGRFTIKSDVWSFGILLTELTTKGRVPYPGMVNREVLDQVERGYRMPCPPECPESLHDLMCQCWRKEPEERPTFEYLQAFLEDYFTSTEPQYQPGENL
# T1 sequence (O15530 whole entry): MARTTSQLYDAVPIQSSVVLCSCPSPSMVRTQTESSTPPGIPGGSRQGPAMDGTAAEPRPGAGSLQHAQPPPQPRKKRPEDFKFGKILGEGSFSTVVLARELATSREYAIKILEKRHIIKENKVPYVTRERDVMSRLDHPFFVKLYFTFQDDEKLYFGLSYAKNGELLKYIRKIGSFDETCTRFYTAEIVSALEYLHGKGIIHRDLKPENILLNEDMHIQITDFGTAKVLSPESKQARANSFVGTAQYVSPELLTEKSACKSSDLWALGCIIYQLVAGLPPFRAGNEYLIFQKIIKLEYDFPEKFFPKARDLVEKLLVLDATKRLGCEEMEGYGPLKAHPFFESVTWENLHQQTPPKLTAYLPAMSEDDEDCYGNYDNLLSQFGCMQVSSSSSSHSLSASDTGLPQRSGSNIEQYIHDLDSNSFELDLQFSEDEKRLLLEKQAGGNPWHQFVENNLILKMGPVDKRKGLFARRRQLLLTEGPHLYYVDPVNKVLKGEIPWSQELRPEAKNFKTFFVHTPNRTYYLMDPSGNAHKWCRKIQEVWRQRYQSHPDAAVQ
# T12 sequence (P07333 20-972): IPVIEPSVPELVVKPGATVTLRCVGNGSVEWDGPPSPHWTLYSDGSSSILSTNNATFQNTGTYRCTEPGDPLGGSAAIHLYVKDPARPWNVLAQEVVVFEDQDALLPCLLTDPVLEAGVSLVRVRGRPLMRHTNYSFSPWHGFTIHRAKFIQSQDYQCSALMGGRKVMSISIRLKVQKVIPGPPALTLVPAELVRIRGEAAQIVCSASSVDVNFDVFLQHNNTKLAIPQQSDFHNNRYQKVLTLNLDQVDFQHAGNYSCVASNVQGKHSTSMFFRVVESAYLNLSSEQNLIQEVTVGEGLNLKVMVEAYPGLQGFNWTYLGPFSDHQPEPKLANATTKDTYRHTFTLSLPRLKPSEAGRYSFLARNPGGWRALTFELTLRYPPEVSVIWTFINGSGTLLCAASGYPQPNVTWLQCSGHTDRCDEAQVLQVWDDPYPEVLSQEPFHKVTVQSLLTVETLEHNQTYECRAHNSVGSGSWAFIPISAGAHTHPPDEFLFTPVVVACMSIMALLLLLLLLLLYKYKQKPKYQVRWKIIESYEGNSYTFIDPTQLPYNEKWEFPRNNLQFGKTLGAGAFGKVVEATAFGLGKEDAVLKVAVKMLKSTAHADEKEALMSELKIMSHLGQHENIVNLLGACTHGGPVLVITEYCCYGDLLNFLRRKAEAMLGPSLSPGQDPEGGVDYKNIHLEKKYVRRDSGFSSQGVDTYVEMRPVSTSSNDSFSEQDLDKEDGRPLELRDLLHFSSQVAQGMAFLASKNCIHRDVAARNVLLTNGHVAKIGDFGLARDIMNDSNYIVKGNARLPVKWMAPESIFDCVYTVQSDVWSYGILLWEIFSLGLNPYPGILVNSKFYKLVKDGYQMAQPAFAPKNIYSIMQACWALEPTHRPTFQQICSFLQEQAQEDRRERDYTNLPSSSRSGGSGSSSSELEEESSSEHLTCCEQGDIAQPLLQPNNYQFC
# T18 sequence (P15056 whole entry): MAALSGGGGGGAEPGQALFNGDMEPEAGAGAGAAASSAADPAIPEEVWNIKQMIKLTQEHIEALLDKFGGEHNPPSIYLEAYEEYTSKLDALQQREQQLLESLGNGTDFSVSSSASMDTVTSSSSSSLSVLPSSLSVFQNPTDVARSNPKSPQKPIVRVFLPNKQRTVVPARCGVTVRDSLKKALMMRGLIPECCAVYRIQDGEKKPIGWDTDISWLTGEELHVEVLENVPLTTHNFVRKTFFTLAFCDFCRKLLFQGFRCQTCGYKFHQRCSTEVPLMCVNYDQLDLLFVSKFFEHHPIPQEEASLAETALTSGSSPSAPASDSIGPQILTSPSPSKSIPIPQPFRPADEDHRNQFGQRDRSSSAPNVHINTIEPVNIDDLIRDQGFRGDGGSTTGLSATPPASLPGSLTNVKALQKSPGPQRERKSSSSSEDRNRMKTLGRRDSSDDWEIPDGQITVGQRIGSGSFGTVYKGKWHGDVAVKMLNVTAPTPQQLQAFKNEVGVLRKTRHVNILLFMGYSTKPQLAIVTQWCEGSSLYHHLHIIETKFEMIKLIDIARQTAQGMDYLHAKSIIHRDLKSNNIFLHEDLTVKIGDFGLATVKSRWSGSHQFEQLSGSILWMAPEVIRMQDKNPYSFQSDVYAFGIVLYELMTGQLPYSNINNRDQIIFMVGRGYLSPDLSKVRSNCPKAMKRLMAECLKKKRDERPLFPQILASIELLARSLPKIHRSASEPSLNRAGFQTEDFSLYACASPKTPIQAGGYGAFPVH
# T10 sequence (P31749 whole entry): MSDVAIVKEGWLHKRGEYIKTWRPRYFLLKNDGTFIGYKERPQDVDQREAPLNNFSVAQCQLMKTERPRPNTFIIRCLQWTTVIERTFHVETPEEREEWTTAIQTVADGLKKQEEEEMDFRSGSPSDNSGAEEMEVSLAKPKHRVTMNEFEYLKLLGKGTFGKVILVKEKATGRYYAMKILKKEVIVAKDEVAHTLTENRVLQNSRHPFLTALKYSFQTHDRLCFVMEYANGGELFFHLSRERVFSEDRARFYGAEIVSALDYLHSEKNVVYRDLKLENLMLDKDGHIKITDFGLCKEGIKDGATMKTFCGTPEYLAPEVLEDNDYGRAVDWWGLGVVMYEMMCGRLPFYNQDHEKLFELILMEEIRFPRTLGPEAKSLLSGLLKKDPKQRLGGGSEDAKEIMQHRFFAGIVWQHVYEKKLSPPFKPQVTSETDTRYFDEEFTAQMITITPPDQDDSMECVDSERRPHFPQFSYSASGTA
# T4 sequence (Q9UM73 19-1620): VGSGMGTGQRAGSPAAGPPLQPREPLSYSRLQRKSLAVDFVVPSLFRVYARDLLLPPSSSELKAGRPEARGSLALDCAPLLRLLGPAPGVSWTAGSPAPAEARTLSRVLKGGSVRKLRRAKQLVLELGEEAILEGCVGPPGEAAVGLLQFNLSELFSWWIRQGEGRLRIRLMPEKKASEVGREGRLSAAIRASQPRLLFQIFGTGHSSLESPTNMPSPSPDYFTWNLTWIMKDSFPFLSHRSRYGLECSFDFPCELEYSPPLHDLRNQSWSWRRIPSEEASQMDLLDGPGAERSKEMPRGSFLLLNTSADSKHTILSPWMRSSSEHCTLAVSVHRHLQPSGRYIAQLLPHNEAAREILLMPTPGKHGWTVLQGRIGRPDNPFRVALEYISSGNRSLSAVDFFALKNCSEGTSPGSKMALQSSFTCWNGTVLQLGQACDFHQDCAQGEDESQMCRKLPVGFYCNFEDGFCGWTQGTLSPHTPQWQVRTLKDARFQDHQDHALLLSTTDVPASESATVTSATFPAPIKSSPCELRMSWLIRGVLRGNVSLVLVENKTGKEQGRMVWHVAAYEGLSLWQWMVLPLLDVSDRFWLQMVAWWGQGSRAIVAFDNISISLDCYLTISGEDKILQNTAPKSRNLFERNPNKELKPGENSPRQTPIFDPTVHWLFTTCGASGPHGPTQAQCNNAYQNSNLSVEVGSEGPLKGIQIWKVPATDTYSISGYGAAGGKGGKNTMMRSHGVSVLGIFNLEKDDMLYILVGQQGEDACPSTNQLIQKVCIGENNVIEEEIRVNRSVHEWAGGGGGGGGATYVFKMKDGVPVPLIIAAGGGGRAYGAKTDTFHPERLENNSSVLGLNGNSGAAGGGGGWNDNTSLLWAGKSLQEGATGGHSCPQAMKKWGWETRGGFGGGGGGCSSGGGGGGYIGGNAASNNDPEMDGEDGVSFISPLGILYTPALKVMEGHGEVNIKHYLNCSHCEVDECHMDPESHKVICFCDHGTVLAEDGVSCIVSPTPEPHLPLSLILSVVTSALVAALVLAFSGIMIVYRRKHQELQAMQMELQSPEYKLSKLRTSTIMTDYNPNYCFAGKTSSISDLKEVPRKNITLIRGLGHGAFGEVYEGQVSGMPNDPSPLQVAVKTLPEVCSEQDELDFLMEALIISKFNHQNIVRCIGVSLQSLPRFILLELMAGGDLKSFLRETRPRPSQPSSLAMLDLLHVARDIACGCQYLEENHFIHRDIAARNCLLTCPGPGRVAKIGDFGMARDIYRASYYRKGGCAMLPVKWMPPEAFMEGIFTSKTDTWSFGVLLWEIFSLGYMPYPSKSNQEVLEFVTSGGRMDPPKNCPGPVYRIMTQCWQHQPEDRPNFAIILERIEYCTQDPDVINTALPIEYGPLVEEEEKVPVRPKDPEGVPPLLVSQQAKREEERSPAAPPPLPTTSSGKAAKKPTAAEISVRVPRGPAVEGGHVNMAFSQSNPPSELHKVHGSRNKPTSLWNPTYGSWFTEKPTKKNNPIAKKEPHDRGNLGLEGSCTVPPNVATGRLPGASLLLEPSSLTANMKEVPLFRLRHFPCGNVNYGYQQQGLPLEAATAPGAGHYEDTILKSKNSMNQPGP
compound,measurement,setting,value
"C#Cc1cccc(Nc2ncnc3cc(OCCOC)c(NC(=O)c4ccc(F)c([N+](=O)[O-])c4)cc23)c1 [Reno647, 4-Fluoro-N-[4-(3-ethynyl-phenylamino)-7-(2-methoxy-ethoxy)-quinazolin-6-yl]-3-nitro-benzamide]",remaining binding at 2 µM,PDPK1,92.8%
same,remaining binding at 2 µM,DDR1,~42%
same,remaining binding at 2 µM,CDK5,99.5%
same,remaining binding at 2 µM,ALK,92.1%
same,remaining binding at 2 µM,INSR,84.6%
same,remaining binding at 2 µM,FLT1,80.5%
same,remaining binding at 2 µM,ABL1,100%
same,remaining binding at 2 µM,GSK3A,100%
same,remaining binding at 2 µM,CDK7,95.5%
same,remaining binding at 2 µM,AKT1,96.8%
same,remaining binding at 2 µM,MLK2,99.7%
same,remaining binding at 2 µM,CSF1R,97.6%
same,remaining binding at 2 µM,FLT3,100%
same,remaining binding at 2 µM,PDGFRB,76.6%
same,remaining binding at 2 µM,CDK8,92.3%
same,remaining binding at 2 µM,CDK2 - Cyclin E1,100%
same,remaining binding at 2 µM,TEC,97.4%
same,remaining binding at 2 µM,BRAF,100%
same,remaining binding at 2 µM,TRKB,88.4%
same,remaining binding at 2 µM,PDGFRA,96.4%
same,remaining binding at 2 µM,LIMK1,100%
same,% Activity Remaining,p38a,100.0%
same,remaining binding at 2 µM,MUSK,91.8%
same,remaining binding at 2 µM,AXL,73.2%
same,remaining binding at 2 µM,SRC,84.9%
same,remaining binding at 2 µM,KIT-KD,90%
